The record followed here is ChEMBL document CHEMBL1201862, “PubChem BioAssay data set” (2004).

The source made the active and inactive calls. Bounds are passed on as bounds.

The nature of assay [1]: inhibitors of intracellular T. cruzi replication, confirmation, NIH3T3 host cells, beta-gal luminescence (AID 2044).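 Further: intracellular parasites grown in NIH/3T3 mouse fibroblasts as host cells; luminescent beta-galactosidase reporter signal from transgenic T. cruzi replicating inside host cells; inhibitors lower the luminescence signal.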 The format is functional, cell-based.
Assay [2] has as its target T1, Histone-lysine N-methyltransferase NSD2 (Homo sapiens, UniProt O96028).
T1 sequence (O96028 whole entry): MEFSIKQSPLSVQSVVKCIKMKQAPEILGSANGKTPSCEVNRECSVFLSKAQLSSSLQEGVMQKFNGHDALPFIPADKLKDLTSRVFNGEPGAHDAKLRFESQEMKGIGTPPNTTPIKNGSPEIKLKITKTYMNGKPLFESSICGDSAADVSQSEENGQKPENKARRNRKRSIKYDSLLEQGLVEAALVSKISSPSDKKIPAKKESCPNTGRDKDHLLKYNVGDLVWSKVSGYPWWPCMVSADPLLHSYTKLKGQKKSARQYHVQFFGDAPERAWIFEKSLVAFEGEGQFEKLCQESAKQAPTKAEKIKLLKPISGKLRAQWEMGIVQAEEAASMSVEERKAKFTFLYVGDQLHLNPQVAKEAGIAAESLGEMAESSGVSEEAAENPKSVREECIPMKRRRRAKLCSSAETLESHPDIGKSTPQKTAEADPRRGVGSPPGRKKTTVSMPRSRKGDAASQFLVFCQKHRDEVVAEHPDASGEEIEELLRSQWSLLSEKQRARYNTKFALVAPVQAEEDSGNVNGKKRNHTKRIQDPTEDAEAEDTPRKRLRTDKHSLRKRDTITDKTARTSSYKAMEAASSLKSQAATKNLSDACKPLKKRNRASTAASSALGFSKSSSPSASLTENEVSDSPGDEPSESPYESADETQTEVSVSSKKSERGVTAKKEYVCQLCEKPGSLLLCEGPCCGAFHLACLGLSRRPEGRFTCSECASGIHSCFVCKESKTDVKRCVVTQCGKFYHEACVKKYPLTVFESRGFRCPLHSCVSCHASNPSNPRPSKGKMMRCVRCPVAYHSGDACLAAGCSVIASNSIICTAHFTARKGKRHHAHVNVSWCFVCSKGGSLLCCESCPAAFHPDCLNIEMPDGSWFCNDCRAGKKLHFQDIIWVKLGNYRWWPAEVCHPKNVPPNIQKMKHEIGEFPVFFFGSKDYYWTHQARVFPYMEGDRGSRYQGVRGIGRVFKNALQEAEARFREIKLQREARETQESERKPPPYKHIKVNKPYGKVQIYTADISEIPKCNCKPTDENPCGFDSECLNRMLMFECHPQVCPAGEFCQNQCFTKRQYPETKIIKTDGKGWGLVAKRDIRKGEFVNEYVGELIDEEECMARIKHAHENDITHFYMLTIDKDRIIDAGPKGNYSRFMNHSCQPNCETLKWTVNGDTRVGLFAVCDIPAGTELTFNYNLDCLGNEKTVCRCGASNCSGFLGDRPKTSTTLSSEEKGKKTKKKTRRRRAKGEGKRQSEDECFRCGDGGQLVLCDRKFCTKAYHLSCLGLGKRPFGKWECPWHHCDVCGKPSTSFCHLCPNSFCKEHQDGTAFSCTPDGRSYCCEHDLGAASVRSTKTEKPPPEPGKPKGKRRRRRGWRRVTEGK
The format is biochemical.

Assay [3] addresses T2, Sentrin-specific protease 8 (Homo sapiens, UniProt Q96LD8).
T2 sequence (Q96LD8 whole entry): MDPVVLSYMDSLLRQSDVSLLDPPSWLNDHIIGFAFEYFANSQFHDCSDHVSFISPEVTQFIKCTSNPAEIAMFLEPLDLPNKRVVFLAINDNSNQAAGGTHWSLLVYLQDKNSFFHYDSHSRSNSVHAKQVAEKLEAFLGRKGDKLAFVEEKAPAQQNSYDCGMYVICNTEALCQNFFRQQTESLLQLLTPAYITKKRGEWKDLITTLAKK
Format: functional.

Assay [4] deals with Tyrosyl-DNA phosphodiesterase 2 (Homo sapiens, UniProt O95551). The assay can be described thus: human TDP2 enzyme inhibitors, dose response, biochemical, epi absorbance, IC50 (AID 743297).
The target of assay [5] is T2, Sentrin-specific protease 8. The format is functional. This is another data set of the same source.
Assay [6] has as its target T3, Sentrin-specific protease 6 (Homo sapiens, UniProt Q9GZR1).
T3 sequence (Q9GZR1 whole entry): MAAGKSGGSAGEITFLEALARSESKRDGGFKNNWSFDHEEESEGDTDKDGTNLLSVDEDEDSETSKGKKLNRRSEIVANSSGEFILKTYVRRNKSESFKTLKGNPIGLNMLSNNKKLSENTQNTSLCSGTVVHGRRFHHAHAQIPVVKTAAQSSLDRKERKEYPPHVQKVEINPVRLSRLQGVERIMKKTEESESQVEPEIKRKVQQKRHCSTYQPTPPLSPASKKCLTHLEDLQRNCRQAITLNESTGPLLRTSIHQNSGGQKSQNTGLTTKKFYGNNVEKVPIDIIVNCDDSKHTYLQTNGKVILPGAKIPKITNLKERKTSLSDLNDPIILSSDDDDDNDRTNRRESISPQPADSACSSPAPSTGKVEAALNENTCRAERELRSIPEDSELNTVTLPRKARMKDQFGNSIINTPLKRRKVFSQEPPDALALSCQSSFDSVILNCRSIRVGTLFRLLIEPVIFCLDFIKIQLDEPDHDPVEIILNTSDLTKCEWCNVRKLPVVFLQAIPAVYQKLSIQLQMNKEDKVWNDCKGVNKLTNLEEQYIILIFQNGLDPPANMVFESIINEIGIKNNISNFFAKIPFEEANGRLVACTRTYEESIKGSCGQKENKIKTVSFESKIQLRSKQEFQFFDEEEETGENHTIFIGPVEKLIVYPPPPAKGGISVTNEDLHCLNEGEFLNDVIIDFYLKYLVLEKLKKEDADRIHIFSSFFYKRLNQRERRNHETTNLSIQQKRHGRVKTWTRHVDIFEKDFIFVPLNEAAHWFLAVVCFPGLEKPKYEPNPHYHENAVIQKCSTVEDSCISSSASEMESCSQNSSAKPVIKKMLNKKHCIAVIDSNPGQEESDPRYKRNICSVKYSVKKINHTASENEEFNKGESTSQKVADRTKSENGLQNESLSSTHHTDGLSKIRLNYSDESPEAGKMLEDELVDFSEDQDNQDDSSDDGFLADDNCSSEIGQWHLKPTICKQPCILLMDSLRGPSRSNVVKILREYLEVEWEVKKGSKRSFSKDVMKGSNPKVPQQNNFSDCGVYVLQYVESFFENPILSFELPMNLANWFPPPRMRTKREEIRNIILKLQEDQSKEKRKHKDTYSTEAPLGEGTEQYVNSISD
The assay can be described thus: SAR Analysis of small molecule inhibitors of Sentrin-specific protease 6 (SENP6) using a Luminescent assay. [Related pubchem assays (depositor defined):AID2582, AID2599]. Format: functional.

The target in assay [7] is Phosphorylase b kinase gamma catalytic chain, liver/testis isoform (Homo sapiens, UniProt P15735). Format: functional.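 Further: PHKG2 measured as one member of a kinome-wide kinase panel.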
Assay [8] deals with Epidermal growth factor receptor (Homo sapiens, UniProt P00533).
Epidermal growth factor receptor, sequence (P00533 whole entry): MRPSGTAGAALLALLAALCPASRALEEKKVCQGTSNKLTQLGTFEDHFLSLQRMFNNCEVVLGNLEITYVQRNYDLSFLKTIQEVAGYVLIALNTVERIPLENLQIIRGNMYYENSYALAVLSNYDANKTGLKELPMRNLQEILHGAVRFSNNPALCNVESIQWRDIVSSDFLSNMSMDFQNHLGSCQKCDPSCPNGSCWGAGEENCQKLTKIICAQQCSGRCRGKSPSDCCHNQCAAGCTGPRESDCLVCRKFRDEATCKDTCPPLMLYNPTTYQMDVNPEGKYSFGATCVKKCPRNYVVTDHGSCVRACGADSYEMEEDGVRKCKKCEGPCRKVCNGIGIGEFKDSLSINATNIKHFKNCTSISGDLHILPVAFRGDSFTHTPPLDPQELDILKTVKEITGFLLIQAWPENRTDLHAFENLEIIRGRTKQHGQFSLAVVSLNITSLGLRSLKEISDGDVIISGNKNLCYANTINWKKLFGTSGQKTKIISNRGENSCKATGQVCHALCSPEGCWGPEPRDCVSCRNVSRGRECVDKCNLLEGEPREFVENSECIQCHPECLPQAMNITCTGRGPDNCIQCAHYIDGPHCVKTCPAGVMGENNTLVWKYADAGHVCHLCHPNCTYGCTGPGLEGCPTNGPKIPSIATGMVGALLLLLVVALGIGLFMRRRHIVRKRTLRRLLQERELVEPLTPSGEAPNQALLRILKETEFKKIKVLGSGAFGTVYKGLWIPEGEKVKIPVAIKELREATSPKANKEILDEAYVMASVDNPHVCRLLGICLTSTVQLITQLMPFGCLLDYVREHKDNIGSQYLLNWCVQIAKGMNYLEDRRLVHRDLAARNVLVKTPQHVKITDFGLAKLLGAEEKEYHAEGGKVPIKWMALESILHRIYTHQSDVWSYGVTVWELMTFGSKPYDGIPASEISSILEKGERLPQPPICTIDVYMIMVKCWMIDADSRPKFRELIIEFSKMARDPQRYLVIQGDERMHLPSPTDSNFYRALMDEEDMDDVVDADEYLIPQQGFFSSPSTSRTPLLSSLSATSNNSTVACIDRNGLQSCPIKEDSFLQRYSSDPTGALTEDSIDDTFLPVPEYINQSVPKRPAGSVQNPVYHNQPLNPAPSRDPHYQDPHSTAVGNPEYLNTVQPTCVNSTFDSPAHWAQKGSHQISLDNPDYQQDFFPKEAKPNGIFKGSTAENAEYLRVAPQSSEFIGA

Tyrosyl-DNA phosphodiesterase 2, sequence (O95551 whole entry): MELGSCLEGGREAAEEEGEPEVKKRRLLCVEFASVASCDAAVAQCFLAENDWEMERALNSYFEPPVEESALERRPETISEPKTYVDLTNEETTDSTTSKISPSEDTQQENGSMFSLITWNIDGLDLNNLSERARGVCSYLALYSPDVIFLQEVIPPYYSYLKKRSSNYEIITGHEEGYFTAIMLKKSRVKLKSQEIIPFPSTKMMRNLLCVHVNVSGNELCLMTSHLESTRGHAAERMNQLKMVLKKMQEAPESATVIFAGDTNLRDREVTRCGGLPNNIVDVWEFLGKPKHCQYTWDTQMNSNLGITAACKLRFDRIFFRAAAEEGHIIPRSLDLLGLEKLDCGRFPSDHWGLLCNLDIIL
Phosphorylase b kinase gamma catalytic chain, liver/testis isoform, sequence (P15735 whole entry, canonical isoform): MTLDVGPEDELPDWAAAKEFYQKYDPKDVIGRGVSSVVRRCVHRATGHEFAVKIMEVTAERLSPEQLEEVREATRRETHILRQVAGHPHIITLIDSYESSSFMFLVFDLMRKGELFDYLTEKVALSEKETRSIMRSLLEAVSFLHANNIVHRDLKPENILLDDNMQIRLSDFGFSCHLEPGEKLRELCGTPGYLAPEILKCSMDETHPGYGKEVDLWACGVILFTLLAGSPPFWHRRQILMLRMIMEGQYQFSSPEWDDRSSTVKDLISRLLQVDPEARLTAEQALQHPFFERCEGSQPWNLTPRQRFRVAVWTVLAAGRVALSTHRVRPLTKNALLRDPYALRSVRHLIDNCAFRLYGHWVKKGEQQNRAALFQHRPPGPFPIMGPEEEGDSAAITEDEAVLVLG

With `Cc1c(NC(=O)C(C)OC(=O)c2ccc([N+](=O)[O-])s2)c(=O)n(-c2ccccc2)n1C` (configuration not stated), in assay [1], the EC50 – broadly, the midpoint of the concentration-response curve – was 1.59 µM (active). In addition, in assay [2], the AC50 – broadly, the concentration at which the activity in the assay is half-maximal – is > 20 µM (inactive). Besides, the results for the IC50 in assay [3], in assay [4] and in assay [5] were 1.99 µM (active), 49.5 µM (inactive) and 7.35 µM (active), respectively.

For the molecule `COc1cc(Br)c(C(=O)c2nccc3cc(OC)c(OC)cc23)cc1OC`, the AC50 in assay [2] was 0.416 µM (active). In addition, the IC50 – broadly, the midpoint of a concentration-inhibition curve – in assay [3] is 2.29 µM (active); in assay [6], 14.3 µM (active); in assay [4], 3.53 µM (active); in assay [5] it was 0.377 µM (active).

As to `CC(N)C1CCC(C(=O)Nc2ccnc3[nH]ccc23)CC1` (configuration not stated), the Ki (usually the dissociation constant of the complex between target and ligand, obtained from inhibition or displacement) is > 5.01 µM (inactive) in assay [7] and > 2 µM (inactive) in assay [8].
